This is an account of results in ChEMBL document CHEMBL1143646, “Synthesis and HIV-1 integrase inhibitory activities of caffeic acid dimers derived from Salvia officinalis” (Bioorg Med Chem Lett, 2005).

What is called IC50 is the concentration that inhibits the measured activity by half. The low end stands for inhibition by little substance, the high end for a need for much substance. As a reminder, the EC50 is the concentration giving half of the maximal effect. Higher therefore signals weaker potency.

Assay [1] concerns the target Human immunodeficiency virus type 1 integrase (Human immunodeficiency virus 1, UniProt Q7ZJM1). The experiment in a line: Inhibitory concentration against HIV-1 integrase.
A short description of assay [2]: Antiviral activity against HIV-1 1 early replicative steps in HeLa-bgal- CD4+ (P4) reporter cells. The note with it: Human immunodeficiency virus 1. Format: functional.

Sequence of Human immunodeficiency virus type 1 integrase (Q7ZJM1 whole entry): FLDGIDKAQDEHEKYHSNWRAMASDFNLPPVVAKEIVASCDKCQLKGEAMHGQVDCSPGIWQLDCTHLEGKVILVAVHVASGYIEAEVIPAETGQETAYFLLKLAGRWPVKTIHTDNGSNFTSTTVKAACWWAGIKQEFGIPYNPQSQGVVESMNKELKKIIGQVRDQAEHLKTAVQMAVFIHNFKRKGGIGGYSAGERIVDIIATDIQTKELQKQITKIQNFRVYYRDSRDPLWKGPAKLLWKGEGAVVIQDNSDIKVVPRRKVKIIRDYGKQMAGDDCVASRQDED

In turn, `O=C(O)/C=C/c1ccc(O)c(Oc2cc3cc(O)c(O)cc3oc2=O)c1` gave a half-maximal inhibitory concentration (IC50) in assay [1] of 1 µM. In assay [2], a half-maximal effect (EC50) was put at 31 µM.
In the same order, the values of `O=C(O)/C=C/c1ccc(Oc2cc3cc(O)c(O)cc3oc2=O)c(O)c1` are 2 µM and 37 µM.
In the same order, the values of `O=c1oc2cc(O)c(O)cc2cc1O` are 2 µM and 12 µM.
